Laboratory results reported in patent US6451734B1, “Substituted 3-benzylpyrazoles and their use as herbicides” (BASF Aktiengesellschaft, priority 1996, dated 2002).

How the values were obtained:
Format in all cases: in vivo
[1] = effect on the plasma glucose and insulin level in diabetes mice; conditions: homocygotic diabetes mice, not fed for one night; by pharyngeal tube in 0.25% hydroxyethylcellulose; blood collected 2 and 4 hours after treatment
Source text: The animals which were used in the experiments described below received, in addition to sufficient water, a standard feed (“Rat and Mouse Breeder and Grower Diet” supplied by Special Diets Services Ltd., UK). Effect of the active compounds according to the invention on the plasma glucose and insulin level The laboratory animals used were homocygotic diabetes mice (40—60 g, supplied by Harlan UK) which were initially not fed for one night and then separated into different groups. The active compounds were administered as a solution or suspension in 0.25% strength aqueous hydroxyethylcellulose (CELLOSIZE supplied by UCC) using a pharyngeal tube, namely at 5 ml/kg of body weight. 2 and 4 hours after the treatment, approximately 50 μl each of blood were collected from the tip of the tail in capillary tubes for the collection of blood containing lithium heparin (supplied by Sarstedt, “Microvette CB300LH”). Plasma samples (5 μl) were immediately tested for their glucose content. A further 10 μl were stored in an Eppendorf tube at (−70)° C. until the plasma glucose and insulin content were determined.

[2] = determination of glucose elimination via urine in CD1-mice
Procedure: The animals which were used in the experiments described below received, in addition to sufficient water, a standard feed (“Rat and Mouse Breeder and Grower Diet” supplied by Special Diets Services Ltd., UK). Determination of Glucose Elimination via Urine In this experiment, 4 groups of 5 CD1-mice each (20—25 g, supplied by Harlan, UK) were transferred into metabolism cages and initially acclimatized for 24 hours. By pharyngeal tube, animals were then administered 100 mg/kg of body weight of the active compound IIIc.1, dissolved or suspended in 0.25% strength aqueous hydroxyethylcellulose (CELLOSIZE supplied by UCC). For comparison, 0.25% strength aqueous Cellosize without active compound was administered to the other 10 mice. The urine was subsequently collected for 24 hours and its total volume was measured. In each case […] of urine were examined for their glucose content.

Solanum nigrum = assay: greenhouse experiment, post-emergence treatment (herbicidal activity); conditions: Solanum nigrum (black nightshade), 0.125 kg/ha of a.s.
Source text: (§1) The herbicidal activity of the substituted 3-benzylpyrazoles I was demostrated by the following greenhouse experiments: The culture containers used were plastic flowerpots containing loamy soil with approximately 3.0% of humus as the substrate. The seeds of the test plants were sown separately for each species. For the post-emergence treatment, the test plants were first grown to a plant height of 3 to 15 cm, depending on the plant habit, and only then treated with the active ingredients which had been suspended or emulsified in water. The test plants for this purpose were either sown directly and grown in the same containers, or they were first grown separately as seedlings and transplanted into the test containers a few days prior to treatment. The rate of application for the post-emergence treatment was 0.125 kg/ha of a.s. (active substance). Depending on the species, the plants were kept at 10-25° C. or 20-35° C. The test period extended over 2 to 4 weeks. During this time, the plants were tended, and their response to the individual treatments was evaluated. Evaluation was carried out using a scale from 0 to 100. 100 means no emergence of the plants, or complete destruction of at least the aerial parts, and 0 means no damage, or normal course of growth. The plants used in the greenhouse experiments belonged to the following species: [table]

Abutilon theophrasti = assay: as above; conditions: Abutilon theophrasti (velvet leaf), 0.125 kg/ha of a.s.
Source text: as §1

Setaria viridis = assay: as above; conditions: Setaria viridis (green foxtail), 0.125 kg/ha of a.s.
Source text: as §1

Amaranthus retroflexus = assay: as above; conditions: Amaranthus retroflexus (redroot pigweed), 0.125 kg/ha of a.s.
Source text: as §1

[3] = 10 CD1-mice, 100 mg/kg of body weight by pharyngeal tube, urine collected for 24 hours

| SMILES | plasma insulin level [1] | glucose concentration of the urine [2, 3] [mmol/L] | total elimination of glucose [2, 3] [µmol] | increase of the elimination of glucose (via urine) ([2]; CD1-mice, 100 mg/kg by pharyngeal tube, 24 hours, versus Cellosize without active compound) [%] | herbicidal activity (Solanum nigrum) | herbicidal activity (Abutilon theophrasti) | herbicidal activity (Setaria viridis) | herbicidal activity (Amaranthus retroflexus) |
| --- | --- | --- | --- | --- | --- | --- | --- | --- |
| Cn1c(=O)cc(Cc2cccc(Cl)c2Cl)n1C(F)F [IIIc.1, 5-(2,3-Dichlorobenzyl)-1-difluoromethyl-1,2-dihydro-2-methyl-3H-pyrazol-3-one] | substantially unchanged | 17.62 | 70.48 | 52 |  |  |  |  |
| Cn1nc(Cc2cccc(Cl)c2Cl)c(Cl)c1OC(F)F [Ia.1, 4-Chloro-3-(2,3-dichlorobenzyl)-5-difluoromethoxy-1-methyl-1H-pyrazole] | substantially unchanged |  |  |  | very good | very good | very good | very good |
| Cn1nc(Cc2cccc(Cl)c2Cl)cc1OC(F)F [Ic.1, 3-(2,3-Dichlorobenzyl)-5-difluoromethoxy-1-methyl-1H-pyrazole] | substantially unchanged |  |  |  |  |  |  |  |
